# Biological target: human ACC2 (Homo sapiens (Human), UniProt O00763)
# Experiment: ACC2 assay, spectrophotometric 384 well assay (NADH-linked, coupled lactate dehydrogenase/pyruvate kinase reaction)
# Format: biochemical
# Details: hACC2 construct lacking the 128 N-terminal amino acids; 25° C., 340 nm, 15 minutes
# Method: Spectrophotometric 384 Well Assay
# Malonyl CoA formation by acetyl CoA carboxylases is stoichometrically linked to the consumption of ATP. ACC2 activity is measured in a NADH-linked kinetic method measuring ADP generated during the ACC reaction using a coupled lactate dehydrogenase/pyruvate kinase reaction.
# For biological testing, a human ACC2 construct which lacks the 128 amino acids at the N-terminus for increased solubility (nt 385-6966 in Genbank entry AJ575592) is cloned. The protein is then expressed in insect cells using a baculoviral expression system. Protein purification is performed by anion exchange.
# All compounds are dissolved in dimethyl sulfoxide (DMSO) to a concentration of 10 mM.
# Assay reactions are then carried out in 384-well plates, with hACC2 in an appropriate dilution and at final assay concentrations (f.c.) of 100 mM Tris (pH 7.5), 10 mM trisodium citrate, 25 mM KHCC3, 10 mM MgCl2, 0.5 mg/ml BSA, 3.75 mM reduced L-glutathione, 15 U/ml lactate dehydrogenase, 0.5 mM phosphoenolpyruvate, 15 U/ml pyruvate kinase, compounds at different concentrations at final DMSO concentrations of 1%.
# The enzymatic reaction is then started by addition of a mixture of NADH, acetyl Coenzyme A (both 200 μM f.c.) and ATP (500 uM f.c.). The decrease of the optical density (slope S) is then determined at 25° C. at a wavelength of 340 nm over 15 minutes in a spectrophotometric reader.
# Each assay microtiter plate contains wells with vehicle instead of compound as controls for the non-inhibited enzyme (100% CTL; ‘HIGH’) and wells without acetyl-CoA as controls for non-specific NADH degradation (0% CTL; ‘LOW’).
# The slope S is used for calculation of % CTL=(S(compound)−S(‘LOW’))/(S(‘HIGH’)−S(‘LOW’))*100. Compounds will give values between 100% CTL (no inhibition) and 0% CTL (complete inhibition).
# For IC50 value determination, the sample slope in the presence of the test compound after subtraction of the low controls (S(compound)−S(‘LOW’)) are used.
# An IC50 value is derived from the compound slopes at different dosages after subtraction of the low controls (S(compound)−S(‘LOW’)) by non-linear regression curve fitting (equation y=(A+((B−A)/(1+((C/x)^D))))).
# In the following table the activity expressed as IC50 (μM) of compounds according to the invention is presented wherein the IC50 values are determined in the ACC2 assay as described hereinbefore. The term “Ex.” refers to the example numbers according to the following experimental section.
# Sequence of human ACC2 (O00763 129-2458): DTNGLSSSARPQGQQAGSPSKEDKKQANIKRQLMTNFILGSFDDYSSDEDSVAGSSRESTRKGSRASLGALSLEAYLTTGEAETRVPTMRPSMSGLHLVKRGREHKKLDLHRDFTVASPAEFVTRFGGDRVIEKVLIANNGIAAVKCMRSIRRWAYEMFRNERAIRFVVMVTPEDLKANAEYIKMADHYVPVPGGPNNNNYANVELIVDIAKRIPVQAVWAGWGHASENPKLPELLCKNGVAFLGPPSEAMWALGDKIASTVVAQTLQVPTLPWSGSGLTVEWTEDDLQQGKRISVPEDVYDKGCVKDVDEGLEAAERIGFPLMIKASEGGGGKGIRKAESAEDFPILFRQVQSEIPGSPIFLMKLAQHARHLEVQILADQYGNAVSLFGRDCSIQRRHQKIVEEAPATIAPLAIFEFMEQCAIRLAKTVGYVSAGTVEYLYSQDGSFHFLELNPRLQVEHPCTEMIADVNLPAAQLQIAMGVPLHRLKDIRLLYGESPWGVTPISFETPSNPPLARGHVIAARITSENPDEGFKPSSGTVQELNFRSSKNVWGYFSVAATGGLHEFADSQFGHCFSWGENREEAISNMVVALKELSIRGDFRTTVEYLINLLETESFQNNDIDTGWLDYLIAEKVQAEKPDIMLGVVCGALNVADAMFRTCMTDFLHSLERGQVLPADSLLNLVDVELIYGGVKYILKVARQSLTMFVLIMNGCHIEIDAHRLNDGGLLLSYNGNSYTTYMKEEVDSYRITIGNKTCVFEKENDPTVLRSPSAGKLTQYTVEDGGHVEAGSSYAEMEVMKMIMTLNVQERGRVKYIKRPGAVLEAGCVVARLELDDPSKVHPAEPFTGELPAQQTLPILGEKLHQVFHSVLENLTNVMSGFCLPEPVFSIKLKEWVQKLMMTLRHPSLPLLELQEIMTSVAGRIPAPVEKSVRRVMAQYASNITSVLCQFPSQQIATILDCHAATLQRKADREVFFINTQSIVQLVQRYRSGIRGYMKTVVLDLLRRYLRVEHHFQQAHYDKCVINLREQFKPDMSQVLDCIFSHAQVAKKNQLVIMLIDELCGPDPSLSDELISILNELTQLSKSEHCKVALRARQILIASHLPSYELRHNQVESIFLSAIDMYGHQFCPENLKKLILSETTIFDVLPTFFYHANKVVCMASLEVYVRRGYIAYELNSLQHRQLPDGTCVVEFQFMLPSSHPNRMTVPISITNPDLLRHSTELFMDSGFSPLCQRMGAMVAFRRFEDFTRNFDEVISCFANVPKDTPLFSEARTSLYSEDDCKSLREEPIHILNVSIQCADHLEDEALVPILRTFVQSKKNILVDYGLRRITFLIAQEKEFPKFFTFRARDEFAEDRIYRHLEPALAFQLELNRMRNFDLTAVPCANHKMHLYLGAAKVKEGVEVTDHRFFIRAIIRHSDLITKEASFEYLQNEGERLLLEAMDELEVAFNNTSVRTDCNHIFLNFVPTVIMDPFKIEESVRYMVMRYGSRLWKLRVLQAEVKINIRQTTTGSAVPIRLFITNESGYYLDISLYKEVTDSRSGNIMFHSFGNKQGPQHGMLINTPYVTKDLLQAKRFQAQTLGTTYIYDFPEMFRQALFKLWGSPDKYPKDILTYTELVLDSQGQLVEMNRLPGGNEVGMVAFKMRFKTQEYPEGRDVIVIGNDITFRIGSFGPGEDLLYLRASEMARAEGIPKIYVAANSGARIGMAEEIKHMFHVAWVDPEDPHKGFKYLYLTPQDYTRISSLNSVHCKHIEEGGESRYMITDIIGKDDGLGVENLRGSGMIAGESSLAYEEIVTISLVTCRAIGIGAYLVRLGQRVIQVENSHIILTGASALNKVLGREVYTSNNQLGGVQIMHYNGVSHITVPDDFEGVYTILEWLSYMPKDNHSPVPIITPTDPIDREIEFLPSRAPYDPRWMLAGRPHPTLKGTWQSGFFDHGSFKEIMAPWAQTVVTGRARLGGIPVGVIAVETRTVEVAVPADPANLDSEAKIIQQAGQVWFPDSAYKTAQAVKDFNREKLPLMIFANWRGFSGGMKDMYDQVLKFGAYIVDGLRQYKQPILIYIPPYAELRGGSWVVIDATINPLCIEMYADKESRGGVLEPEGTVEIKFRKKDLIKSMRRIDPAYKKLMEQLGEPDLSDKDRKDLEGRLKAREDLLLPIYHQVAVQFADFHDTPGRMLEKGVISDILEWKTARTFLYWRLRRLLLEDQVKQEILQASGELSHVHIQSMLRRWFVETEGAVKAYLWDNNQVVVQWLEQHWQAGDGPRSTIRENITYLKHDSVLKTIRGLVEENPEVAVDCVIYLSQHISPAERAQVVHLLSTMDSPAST
row,SMILES,IC50
1,C[C@H](NC(=O)CO)c1ccc(C2CN(c3ccc(OCC4CC4)cc3)C2)cc1 [Example 3.82],1.62 µM
2,CCC(=O)NC(C)Cc1ccc(C2CN(c3ccc4c(c3)OCCO4)C2)cc1 (centres unmarked) [Example 3.83],3.13 µM
3,CC(Cc1ccc(C2CN(c3ccc4c(c3)OCCO4)C2)cc1)NC(=O)C(F)F (centres unmarked) [Example 3.84],3.6 µM
4,C[C@H](NC(=O)c1cncs1)c1ccc(C2CN(c3ccc(OCC4CC4)cc3)C2)cc1 [Example 3.86],0.45 µM
5,Cc1nocc1C(=O)N[C@@H](C)c1ccc(C2CN(c3ccc(OCC4CC4)cc3)C2)cc1 [Example 3.87],0.47 µM
6,C[C@H](NC(=O)C(C)(F)F)c1ccc(C2CN(c3ccc(OCC4CC4)cc3)C2)cc1 [Example 3.88],0.53 µM
7,C[C@H](NC(=O)CF)c1ccc(C2CN(c3ccc(OCC4CC4)cc3)C2)cc1 [Example 3.89],0.55 µM
8,C[C@H](NC(=O)c1cnn(C)c1)c1ccc(C2CN(c3ccc(OCC4CC4)cc3)C2)cc1 [Example 3.90],0.62 µM
9,C=CCC(=O)N[C@@H](C)c1ccc(C2CN(c3ccc(OCC4CC4)cc3)C2)cc1 [Example 3.91],0.63 µM
10,CC(=O)N[C@@H](C)c1ccc(C2CN(c3ncnc(OCC4CC4)c3Cl)C2)cc1 [Example 5.5],0.38 µM

# Now from value to compound:
row,IC50,SMILES
1,0.36 µM,C[C@H](NC(=O)C(F)F)c1ccc(C2CN(c3ccc(OCC4CC4)cc3)C2)cc1 [Example 3.85]
2,1.82 µM,"CC(=O)N[C@@H](C)c1ccc(C2CN(c3ccnc(N(C)CC(F)F)n3)C2)cc1 [Example 4.1, (S)—N-(1-(4-(1-(2-((2,2-difluoroethyl)(methyl)amino)pyrimidin-4-yl)azetidin-3-yl)phenyl)ethyl)acetamide]"
3,1.01 µM,CC(=O)N[C@@H](C)c1ccc(C2CN(c3nc(N(C)CC(F)F)ncc3F)C2)cc1 [Example 4.2]
4,1.51 µM,CC(=O)N[C@@H](C)c1ccc(C2CN(c3nc(N(C)C)ncc3F)C2)cc1 [Example 4.3]
5,1.45 µM,"CC(=O)N[C@@H](C)c1ccc(C2CN(c3ccnc(OCC4CC4(F)F)c3F)C2)cc1 (stereo partly drawn) [Example 5.1, N-((1S)-1-(4-(1-(2-((2,2-difluorocyclopropyl)methoxy)-3-fluoropyridin-4-yl)azetidin-3-yl)phenyl)ethyl)acetamide]"
6,1.22 µM,CC(=O)N[C@@H](C)c1ccc(C2CN(c3ccnc(OCC(F)F)c3)C2)cc1 [Example 5.2]
7,1.59 µM,CC(=O)N[C@@H](C)c1ccc(C2CN(c3ccnc(OCC4CC4)c3)C2)cc1 [Example 5.3]
8,0.68 µM,CCCOc1ncnc(N2CC(c3ccc([C@H](C)NC(C)=O)cc3)C2)c1Cl [Example 5.4]
9,0.54 µM,CC(=O)N[C@@H](C)c1ccc(C2CN(c3ncnc(OCC4CC4(F)F)c3F)C2)cc1 (some centres unmarked) [Example 5.6]
10,0.4 µM,CC(=O)N[C@@H](C)c1ccc(C2CN(c3ncnc(OCC4CC4)c3F)C2)cc1 [Example 5.7]

# From US8623860B2, “Azetidine derivatives, pharmaceutical compositions and uses thereof” (Boehringer Ingelheim International GmbH, priority 2011, dated 2014)
